The target of this test is T1, CCDC6-RET fusion expressing papillary thyroid carcinoma (TPC-1) cell line (Homo sapiens, UniProt P07949).
T1 construct: RET protein abundance (and therefore degradation) directly corresponds to luminescence intensity; CCDC6 (fusion partner, N-terminal part); endogenous in cells; host or cells: TPC-1 (papillary thyroid carcinoma), parental; the other entry of the earlier key: CCDC6 (Q16204, Coiled-coil domain-containing protein 6)
T1 sequence (P07949 with tags, fused parts or gaps): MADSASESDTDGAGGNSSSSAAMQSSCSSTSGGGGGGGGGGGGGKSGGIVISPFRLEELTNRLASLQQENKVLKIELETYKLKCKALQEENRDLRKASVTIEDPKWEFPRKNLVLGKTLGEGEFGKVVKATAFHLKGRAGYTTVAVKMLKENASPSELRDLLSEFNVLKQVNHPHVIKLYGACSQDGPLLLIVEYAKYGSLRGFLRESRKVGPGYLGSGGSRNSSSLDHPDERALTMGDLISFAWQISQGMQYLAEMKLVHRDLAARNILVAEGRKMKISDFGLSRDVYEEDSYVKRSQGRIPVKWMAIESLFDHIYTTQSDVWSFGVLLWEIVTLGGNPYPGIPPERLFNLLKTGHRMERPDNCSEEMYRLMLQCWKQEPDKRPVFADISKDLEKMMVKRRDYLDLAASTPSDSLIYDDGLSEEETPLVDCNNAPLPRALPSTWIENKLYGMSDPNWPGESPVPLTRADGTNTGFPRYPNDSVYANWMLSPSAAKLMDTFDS
Kind of test: Cellular RET degradation assay (AlphaLISA Surefire Ultra, tRET) in TPC-1/CCDC6-RET cells. The test is classed as cell-based. To be noted: TPC1, maximum % degradation (YMax) from 4-parameter logistic fit, parental TPC-1/CCDC6-RET cells, 24 hrs treatment, read-out: Cell Density TPC-1/CCDC6-RET YMax (%). The protocol: Cellular RET degradation compound potency was determined using the bead-based luminescent amplification assay—AlphaLISA Surefire Ultra Detection Kit (Perkin-Elmer). The CCDC6-RET fusion expressing papillary thyroid carcinoma (TPC-1) cell line was selected for screening of potential degraders: Parental (TPC-1/CCDC6-RET). Cells were plated in 384 well culture plates (Greiner Bio-One) at 10,000 cells/well in 50ul/well DMEM (Fisher Scientific) with 2% FBS serum (Gibco). After cellular adhesion (4 hrs), cells were treated with compound by dispensing 25nl of serially diluted compound (1:3 dilution: 1 ipoint) directly into the cell culture wells using an Echo-655 acoustic liquid dispenser (Beckman). Low normalization wells were media only and high normalization wells were cells treated with DMSO only. Treated cell plates were placed in an incubator at 37C and 5% CO2 for 24 hrs. At 24 hrs, cell media was removed by a FELIX automated liquid hander (Analytik Jena) and 25ul of cell lysis buffer (provided in AlphaLisa kit) was added to each well. 5ul cell lysate were transferred into a 384-well microplate (Perkin Elmer) before addition of 2.5ul AlphaLISA Acceptor Bead mix. The plates were sealed and kept at room temperature for 1 hr before addition of donor bead mixture. Donor bead addition was performed in the dark and incubated for >1 hr before AlphaLISA luminescence was measured on an Envision plate reader with an Alphascreen aperture at RT (excitation 680 nm, emission 615 nm). RET protein abundance (and therefore degradation) directly corresponds to luminescence intensity.
Intensities were normalized relative to the average values from 16 wells containing media alone (blank-low) and 16 wells containing cells +DMSO (high). % Degradation for each well was determined using the standard equation, where
DC50 (IC50) values for each compound tested are calculated by analyzing plots of % degradation versus compound concentration, and fitting to the standard 4-parameter logistic curve where,
Top and bottom are the % degradation at infinitely large and infinitely small compound concentrations, respectively, while Halfmax is the compound concentration yielding % degradation corresponding tob½ Top-Bottom, and N is the Hill coefficient. DC50 values are calculated according to the relationship,
Compound replicates were performed in independent assays. Maximum degradation (YMax) was defined as the maximal % degradation value from the 4-parameter logistic equation, as previously described.
The half-maximal degradation concentration (DC50) and % degradation response (Ymax) are included in Table 3.
As for `COCc1ccc(NC(=O)c2c(C#CC3CCN(C(=O)CCCCCCN4CCN(c5ccc6c(c5)CN(C5CCC(=O)NC5=O)C6=O)CC4)CC3)c(C(C)C)n3ncnc(N)c23)cc1` (stereo not shown) [Example 1], the Dmax worked out at 84.5%.

Turning to `COCc1ccc(NC(=O)c2c(C#CC3CCN(C(=O)CCCCCCN4CCC(c5ccc6c(c5)CN(C5CCC(=O)NC5=O)C6=O)CC4)CC3)c(C(C)C)n3ncnc(N)c23)cc1` (stereo not shown) [Example 2, 4-amino-6-((1-(7-(4-(2-(2,6-dioxopiperidin-3-yl)-1-oxoisoindolin-5-yl)piperidin-1-yl)heptanoyl)piperidin-4-yl)ethynyl)-7-isopropyl-N-(4-(methoxymethyl)phenyl)pyrrolo[2,1-f][1,2,4]triazine-5-carboxamide], the Dmax stood at 87.4%.

For `COCc1ccc(NC(=O)c2c(C#CC3CCN(C(=O)CCCCCCN4CCN(c5ccc6c(c5)C(=O)N(C5CCC(=O)NC5=O)C6)CC4)CC3)c(C(C)C)n3ncnc(N)c23)cc1` (stereo not shown) [Example 3, 4-amino-6-((1-(7-(4-(2-(2,6-dioxopiperidin-3-yl)-3-oxoisoindolin-5-yl)piperazin-1-yl)heptanoyl)piperidin-4-yl)ethynyl)-7-isopropyl-N-(4-(methoxymethyl)phenyl)pyrrolo[2,1-f][1,2,4]triazine-5-carboxamide], the Dmax is 91.8%.

Regarding `COCc1ccc(NC(=O)c2c(C#CC3CCN(C(=O)CCCCCCN4CCC(c5ccc6c(c5)C(=O)N(C5CCC(=O)NC5=O)C6)CC4)CC3)c(C(C)C)n3ncnc(N)c23)cc1` (stereo not shown) [Example 4, 4-amino-6-((1-(7-(4-(2-(2,6-dioxopiperidin-3-yl)-3-oxoisoindolin-5-yl)piperidin-1-yl)heptanoyl)piperidin-4-yl)ethynyl)-7-isopropyl-N-(4-(methoxymethyl)phenyl)pyrrolo[2,1-f][1,2,4]triazine-5-carboxamide], the Dmax turned out to be 97.6%.

`COCc1ccc(NC(=O)c2c(C#CC3CCN(C(=O)CCCCN4CCN(c5ccc6c(c5)CN(C5CCC(=O)NC5=O)C6=O)CC4)CC3)c(C(C)C)n3ncnc(N)c23)cc1` (stereo not shown) [Example 5, 4-amino-6-((1-(5-(4-(2-(2,6-dioxopiperidin-3-yl)-1-oxoisoindolin-5-yl)piperazin-1-yl)pentanoyl)piperidin-4-yl)ethynyl)-7-isopropyl-N-(4-(methoxymethyl)phenyl)pyrrolo[2,1-f][1,2,4]triazine-5-carboxamide]: the Dmax was determined as 79.9%.

As for `COCc1ccc(NC(=O)c2c(C#CC3CCN(C(=O)CCCCN4CCN(c5ccc6c(c5)C(=O)N(C5CCC(=O)NC5=O)C6)CC4)CC3)c(C(C)C)n3ncnc(N)c23)cc1` (stereo not shown) [Example 6, 4-amino-6-((1-(5-(4-(2-(2,6-dioxopiperidin-3-yl)-3-oxoisoindolin-5-yl)piperazin-1-yl)pentanoyl)piperidin-4-yl)ethynyl)-7-isopropyl-N-(4-(methoxymethyl)phenyl)pyrrolo[2,1-f][1,2,4]triazine-5-carboxamide], the Dmax was found to be 97.3%.

`COCc1ccc(NC(=O)c2c(C#CC3CCN(C(=O)CCCCN4CCC(c5ccc6c(c5)C(=O)N(C5CCC(=O)NC5=O)C6)CC4)CC3)c(C(C)C)n3ncnc(N)c23)cc1` (stereo not shown) [Example 7, 4-amino-6-((1-(5-(4-(2-(2,6-dioxopiperidin-3-yl)-3-oxoisoindolin-5-yl)piperidin-1-yl)pentanoyl)piperidin-4-yl)ethynyl)-7-isopropyl-N-(4-(methoxymethyl)phenyl)pyrrolo[2,1-f][1,2,4]triazine-5-carboxamide]: the Dmax was found to be 90.1%.

For `COCc1ccc(NC(=O)c2c(C#CC3CCN(C(=O)CCCCN4CCC(c5ccc6c(c5)CN(C5CCC(=O)NC5=O)C6=O)CC4)CC3)c(C(C)C)n3ncnc(N)c23)cc1` (stereo not shown) [Example 8, 4-amino-6-((1-(5-(4-(2-(2,6-dioxopiperidin-3-yl)-1-oxoisoindolin-5-yl)piperidin-1-yl)pentanoyl)piperidin-4-yl)ethynyl)-7-isopropyl-N-(4-(methoxymethyl)phenyl)pyrrolo[2,1-f][1,2,4]triazine-5-carboxamide], the Dmax amounted to 86.3%.

Turning to `COCc1ccc(NC(=O)c2c(C#CC3CCN(C(=O)CN4CCC5(CC4)CCN(c4ccc6c(c4)CN(C4CCC(=O)NC4=O)C6=O)CC5)CC3)c(C(C)C)n3ncnc(N)c23)cc1` (stereo not shown) [Example 9, 4-amino-6-((1-(2-(9-(2-(2,6-dioxopiperidin-3-yl)-1-oxoisoindolin-5-yl)-3,9-diazaspiro[5.5]undecan-3-yl)acetyl)piperidin-4-yl)ethynyl)-7-isopropyl-N-(4-(methoxymethyl)phenyl)pyrrolo[2,1-f][1,2,4]triazine-5-carboxamide], the Dmax turned out to be 79.1%.

In the case of `COCc1ccc(NC(=O)c2c(C#CC3CCN(C(=O)CCN4CCC5(CC4)CCN(c4ccc6c(c4)CN(C4CCC(=O)NC4=O)C6=O)CC5)CC3)c(C(C)C)n3ncnc(N)c23)cc1` (stereo not shown) [Example 10, 4-amino-6-((1-(3-(9-(2-(2,6-dioxopiperidin-3-yl)-1-oxoisoindolin-5-yl)-3,9-diazaspiro[5.5]undecan-3-yl)propanoyl)piperidin-4-yl)ethynyl)-7-isopropyl-N-(4-(methoxymethyl)phenyl)pyrrolo[2,1-f][1,2,4]triazine-5-carboxamide], the Dmax was 78.9%.

Values taken from patent US20250376474A1, “RET-LDD PROTEIN DEGRADERS” (Bristol-Myers Squibb Company, priority 2022, published 2025).
